Source: patent US20150203517A1, “Prodrugs of Compounds that Enhance Antifungal Activity and Compositions of Said Prodrugs” (priority 2014, published 2015)
Structures can show the parent of a compound that is named as a salt. Where two headings read alike, the source gives them in different places.

Test: Saline solubility at 1.00 mg/mL and 0.50 mg/mL (with pH by indicator paper)
Assay type: physicochemical
Details: for solubility at 1 h: saline or isotonic, thermodynamic from solid, centrifuged, soluble = no precipitate formed; for pH at 1.00 mg/mL of MGCD290 in saline: final concentration of hydroxamate 1 1.00 mg/mL, pH indicator paper
Protocol: Assays were performed to determine the saline solubility at 1.00 and 0.50 mg/ml and the stability of certain of the prodrug compounds of Examples 1-111. The following procedures were used.
Step 1. Sample preparation. An amount of the compound sample was precisely weighed to correspond to around 5 mg of the hydroxamate of compound 1, taking into account the mass of the leaving group and the salt factor if applicable. The sample was placed in a 16×125 mm glass screw cap tube. Saline was added so that the final concentration of hydroxamate 1 was 1.00 mg/mL. The pH was measured with pH indicator paper. The tube was shaken for 1 hour on a Vortex apparatus then centrifuged at 3000 rpm (1800 rcf) for 5 minutes. If the compound example was soluble (no precipitate formed) the procedure continued to step 2. If a precipitate formed then the sample was diluted with saline so that the final concentration of the hydroxamate of compound 1 was 0.50 mg/mL, and the shaking and centrifuging steps were repeated. If the compound example was soluble (no precipitate formed) the procedure continued to step 2. If a precipitate formed the sample was discarded. Step 2. HPLC analysis. A 500 μL aliquot of a sample solution prepared according to Step 1 was taken up into a 1.5 mL injection vial to which was added 500 μL of saline. The vial was shaken on a Vortex apparatus, injected into the HPLC instrument (UV detection, zero time point) and the retention time and purity of the sample compound were determined. The injection was repeated after 6 hours and 24 hours, and a comparison was made of the retention time, peak areas and level of degradation (if any) using the GDADI50 method.

[1] = 0.50 mg/mL as hydroxamate 1, shaken 1 hour, read-out: Soluble at 0.5 mg/mL of MGCD290 (Y/N)
[2] = 1.00 mg/mL as hydroxamate 1, shaken 1 hour, read-out: Soluble at 1.00 mg/mL of MGCD290 (Y/N)

Compound	solubility at 1 h [1]	solubility at 1 h [2]	pH at 1.00 mg/mL of MGCD290 in saline
NCCCCCCCC(=O)ONC(=O)Cc1ccc(CCCCc2ccccc2)cc1 [Compound 7, N-(8-aminooctanoyloxy)-2-(4-(4-phenylbutyl)phenyl)acetamide hydrochloride]	< 0.5 mg/mL	< 1 mg/mL	–
CN1CCN(C(=O)ONC(=O)Cc2ccc(CCCCc3ccccc3)cc2)CC1.Cl [Compound 45]	< 0.5 mg/mL	< 1 mg/mL	4-4.5
CCCC(CCC)C(=O)ONC(=O)Cc1ccc(CCCCc2ccccc2)cc1 [Compound 50, 2-(4-(4-Phenylbutyl)phenyl)-N-(2-propylpentanoyloxyl)acetamide]	< 0.5 mg/mL	< 1 mg/mL	–
O=C(Cc1ccc(CCCCc2ccccc2)cc1)NOC(=O)CCC1CCCC1 [Compound 51]	< 0.5 mg/mL	< 1 mg/mL	–
O=C(Cc1ccc(CCCCc2ccccc2)cc1)NOC(=O)CN1C(=O)OC[C@@H]1c1ccccc1 [Compound 52A]	< 0.5 mg/mL	< 1 mg/mL	4.5-5
COCCC(=O)ONC(=O)Cc1ccc(CCCCc2ccccc2)cc1 [Compound 52B]	< 0.5 mg/mL	< 1 mg/mL	–
O=C(Cc1ccc(CCCCc2ccccc2)cc1)NOC(=O)CC1CC1 [Compound 52C]	< 0.5 mg/mL	< 1 mg/mL	–
CC(=O)ONC(=O)Cc1ccc(CCCCc2ccccc2)cc1 [Compound 52D]	< 0.5 mg/mL	< 1 mg/mL	–
CCC(=O)ONC(=O)Cc1ccc(CCCCc2ccccc2)cc1 [Compound 52E]	< 0.5 mg/mL	< 1 mg/mL	–
O=C(Cc1ccc(CCCCc2ccccc2)cc1)NOC(=O)CCC1CCCCC1 [Compound 52]	< 0.5 mg/mL	< 1 mg/mL	–
COC(=O)NCC1(C(=O)ONC(=O)Cc2ccc(CCCCc3ccccc3)cc2)CC1 [Compound 53]	< 0.5 mg/mL	< 1 mg/mL	4.5-5
COCCOCCOCC(=O)NCC1(C(=O)ONC(=O)Cc2ccc(CCCCc3ccccc3)cc2)CC1 [Compound 55, 2-(2-(2-Methoxyethoxyl)ethoxy)-N-((1-((2-(4-(4-phenylbutyl)phenyl)acetamidooxy)carbonyl)cyclopropyl)methyl)acetamide]	< 0.5 mg/mL	< 1 mg/mL	–
COCCOCCOCCOCCOCC(=O)NCC1(C(=O)ONC(=O)Cc2ccc(CCCCc3ccccc3)cc2)CC1 [Compound 56]	< 0.5 mg/mL	< 1 mg/mL	4.5-5
COCCOCCOCCOCCOCCOCC(=O)NCC1(C(=O)ONC(=O)Cc2ccc(CCCCc3ccccc3)cc2)CC1 [Compound 57]	< 0.5 mg/mL	< 1 mg/mL	4.5-5

Second part, the molecule after the results:

solubility at 1 h [1]	solubility at 1 h [2]	pH at 1.00 mg/mL of MGCD290 in saline	Compound
< 0.5 mg/mL	< 1 mg/mL	4.5-5	COCCOCCOCC(=O)NCCC(=O)ONC(=O)Cc1ccc(CCCCc2ccccc2)cc1 [Compound 60]
< 0.5 mg/mL	< 1 mg/mL	4.5-5	COCCOCCOCCOCCOCC(=O)NCCC(=O)ONC(=O)Cc1ccc(CCCCc2ccccc2)cc1 [Compound 61]
< 0.5 mg/mL	< 1 mg/mL	4.5-5	COCCOCCOCCOCCOCCOCC(=O)NCCC(=O)ONC(=O)Cc1ccc(CCCCc2ccccc2)cc1 [Compound 62]
< 0.5 mg/mL	< 1 mg/mL	4.5-5	CC(=O)NCCCC[C@H](NC(C)=O)C(=O)NCCC(=O)ONC(=O)Cc1ccc(CCCCc2ccccc2)cc1 [Compound 66]
< 0.5 mg/mL	< 1 mg/mL	4.5-5	COCC(=O)NCCCC[C@H](NC(=O)COC)C(=O)NCCC(=O)ONC(=O)Cc1ccc(CCCCc2ccccc2)cc1 [Compound 67]
–	> 1 mg/mL	4.5-5	COCCOCCOCCOCCOCC(=O)NCCCC[C@H](NC(=O)COCCOCCOCCOCCOC)C(=O)NCCC(=O)ONC(=O)Cc1ccc(CCCCc2ccccc2)cc1 [Compound 69]
< 0.5 mg/mL	< 1 mg/mL	4.5-5	COCCOCC(=O)NCCCC[C@H](NC(=O)COCCOC)C(=O)ONC(=O)Cc1ccc(CCCCc2ccccc2)cc1 [Compound 70]
< 0.5 mg/mL	< 1 mg/mL	4.5-5	COCCOCCOCC(=O)NCCCC[C@H](NC(=O)COCCOCCOC)C(=O)ONC(=O)Cc1ccc(CCCCc2ccccc2)cc1 [Compound 71]
< 0.5 mg/mL	< 1 mg/mL	4.5-5	CC(C)NC(=O)ONC(=O)Cc1ccc(CCCCc2ccccc2)cc1 [Compound 73, N-(Isopropylcarbamoyloxy)-2-(4-(4-phenylbutyl)phenyl)acetamide]
< 0.5 mg/mL	< 1 mg/mL	4.5-5	CCNC(=O)ONC(=O)Cc1ccc(CCCCc2ccccc2)cc1 [Compound 74]
< 0.5 mg/mL	< 1 mg/mL	4.5-5	CCOC(=O)CNC(=O)ONC(=O)Cc1ccc(CCCCc2ccccc2)cc1 [Compound 75]
< 0.5 mg/mL	< 1 mg/mL	4.5-5	CC(C)OC(=O)ONC(=O)Cc1ccc(CCCCc2ccccc2)cc1 [Compound 76, N-(isopropoxycarbonyloxy)-2-(4-(4-phenylbutyl)phenyl)acetamide]
< 0.5 mg/mL	< 1 mg/mL	4.5-5	COCCOCCOCCNC(=O)NCCC(=O)NCC1(C(=O)ONC(=O)Cc2ccc(CCCCc3ccccc3)cc2)CC1 [Compound 79, N-1-(2-(2-(2-Methoxyethoxyl)ethoxy)ethyl)-N-3-(2-(1-((2-(4-(4-phenylbutyl)phenyl)acetamidooxy)carbonylcyclopropyl)methyl)carbamoylethyl)urea]
–	> 1 mg/mL	4.5-5	COCCOCCOCCOCCOCC(=O)N1CCN(C(=O)ONC(=O)Cc2ccc(CCCCc3ccccc3)cc2)CC1 [Compound 81]
–	> 1 mg/mL	4.5-5	COCCOCCOCCOCCOCCOCC(=O)N1CCN(C(=O)ONC(=O)Cc2ccc(CCCCc3ccccc3)cc2)CC1 [Compound 82]
< 0.5 mg/mL	< 1 mg/mL	4.5-5	O=C1COCCOCC(=O)N[C@H](C(=O)NCCC(=O)ONC(=O)Cc2ccc(CCCCc3ccccc3)cc2)CCCCN1 [Compound 83, (S)-6,14-Dioxo-N-(3-oxo-3-(2-(4-(4-phenylbutyl)phenyl)acetamidooxy)propyl)-1,4-dioxa-7,13-diazacyclopentadecane-8-carboxamide]
< 0.5 mg/mL	< 1 mg/mL	4.5-5	O=C1COCCOCCOCC(=O)N[C@H](C(=O)NCCC(=O)ONC(=O)Cc2ccc(CCCCc3ccccc3)cc2)CCCCN1 [Compound 84]
< 0.5 mg/mL	< 1 mg/mL	4.5-5	COCCOCCOCCOCCOCC(=O)NC[C@H](C)C(=O)ONC(=O)Cc1ccc(CCCCc2ccccc2)cc1 [Compound 87, (S)—N-(2-Methyl-3-oxo-3-(2-(4-(4-phenylbutyl)phenyl)acetamidooxy)propyl)-2,5,8,11,14-pentaoxahexadecan-16-amide]
